From patent US20190224153A1, “L-DOPA DERIVATIVES FOR THE TREATMENT OF NEUROLOGICAL DISEASES” (BERLIREM GMBH, priority 2016, published 2019)

Key:
[1] = Enzymatic cleavage of L-DOPA esters in human plasma (ex vivo); conditions: pH 7.4, 37° C., after 2 hours, n=3
Experimental: After 2, 15, 30, 45, 60 and 120 min 200 μL sample were taken, immediately deproteinized (200 μL 0.4N PCA), precipitated (200 μL 0.1% formic acid) and centrifuged. […] For purpose of comparison L-Dopa Ethyl Ester was investigated under same conditions.

[2] = Stability against hydrolytic cleavage, aprotic versus aqueous solutions; format: physicochemical; conditions: aprotic solutions compared to aqueous solutions
Text: It is an additional aspect of the invention that the high solubility of the L-DOPA ester in aprotic solvents suitable for parenteral application (such as e.g. N-Methylpyrrolidone, Polysorbat 80, Dimethylacetamide, Solutol HS 15, Glycerol, Ethanol) also relates to L-DOPA esters known before the application date of WO 2016/155888 A1, in particular L-DOPA ethyl ester described in WO 2012/079072 A2 (Heller et al.). […] Moreover the stability is much higher even at pH-values of 5-8. L-DOPA ethyl ester solutions in aprotic solvents suitable for parenteral application could therefore solve tolerability problems known from earlier attempts to use L-DOPA ethyl ester in the treatment of neurological diseases.

Row | converted to L-Dopa [1] [%] | SMILES | stability against hydrolytic cleavage [2]
1 | 60 | N[C@@H](Cc1ccc(O)c(O)c1)C(=O)OCC(O)CO (stereo partly drawn) [L-DOPA Glycerin ester] | –
2 | 50 | CCOC(=O)[C@@H](N)Cc1ccc(O)c(O)c1 [L-DOPA Ethyl Ester] | higher stability against hydrolytic cleavage compared to aqueous solutions
